Results: ChEMBL document CHEMBL3046396, “Synthesis and insecticidal evaluation of N-tert-butyl-N'-thio[1-(6-chloro-3-pyridylmethyl)-2-nitroiminoimidazolidine]-N,N'-diacylhydrazines” (2010)
The source made the active and inactive calls. No cut-off for these calls is given here.

How the values were obtained:
[1] = tested on: Mythimna separata; assay: Larvicidal activity against fourth-instar larval stage of Mythimna separata (Oriental armyworm) in compound-pretreated corn leaves assessed as mortality at 10 mg/l after 4 days; type: functional
[2] = tested on: Mythimna separata; assay: Larvicidal activity against fourth-instar larval stage of Mythimna separata (Oriental armyworm) in compound-pretreated corn leaves assessed as mortality at 25 mg/l after 4 days; type: functional
[3] = tested on: Mythimna separata; assay: Larvicidal activity against fourth-instar larval stage of Mythimna separata (Oriental armyworm) in compound-pretreated corn leaves assessed as mortality at 50 mg/l after 4 days; type: functional
[4] = tested on: Mythimna separata; assay: Larvicidal activity against fourth-instar larval stage of Mythimna separata (Oriental armyworm) in compound-pretreated corn leaves assessed as mortality at 100 mg/l after 4 days; type: functional
[5] = tested on: Aphis fabae; assay: Insecticidal activity against apterous adult stage of Aphis fabae (black bean aphids) in soybean tender shoots assessed as induction of premature, abnormal and lethal larva moult at 10 mg/l treated for 5 secs measured after 3 days by modified FAO dip test; type: functional, organism-based
[6] = tested on: Aphis fabae; assay: Insecticidal activity against apterous adult stage of Aphis fabae ( black bean aphids) in soybean tender shoots assessed as death rate at 200 mg/l treated for 5 secs measured after 48 hr by modified FAO dip test; type: functional
[7] = tested on: Mythimna separata; assay: Larvicidal activity against fourth-instar larval stage of Mythimna separata (Oriental armyworm) in compound-pretreated corn leaves assessed as mortality at 5 mg/l after 4 days; type: functional
[8] = tested on: Mythimna separata; assay: Larvicidal activity against fourth-instar larval stage of Mythimna separata (Oriental armyworm) in compound-pretreated corn leaves assessed as mortality at 200 mg/l after 4 days; type: functional
[9] = tested on: Mythimna separata; assay: Larvicidal activity against fourth-instar larval stage of Mythimna separata (Oriental armyworm) in compound-pretreated corn leaves assessed as mortality at 500 mg/l after 4 days; type: functional
[10] = tested on: Aphis fabae; assay: Insecticidal activity against apterous adult stage of Aphis fabae (black bean aphids) in soybean tender shoots assessed as mortality at 200 mg/l treated for 5 secs measured after 2 hr by modified FAO dip test; type: functional, organism-based

Structure (SMILES) | mortality at 10 µg/mL [1] | mortality at 25 µg/mL [2] | mortality at 50 µg/mL [3] | mortality at 100 µg/mL [4] | Activity [5] | Activity [6] | mortality at 5 µg/mL [7] | mortality at 200 µg/mL [8] | mortality at 500 µg/mL [9] | Activity [10]
CC(C)(C)N(NC(=O)c1ccccc1)C(=O)c1cccc(Cl)c1 | 0% | 45% | 95% | 100% | Active | 12% | – | – | – | –
CC(C)(C)N(NC(=O)c1ccccc1)C(=O)c1ccccc1 [RH-5849] | 0% | 70% | 100% | – | Active | 0% | – | – | – | –
CCc1ccc(C(=O)NN(C(=O)c2cc(C)cc(C)c2)C(C)(C)C)cc1 [TEBUFENOZIDE] | 100% | – | – | – | Active | 0% | 70% | – | – | –
Cc1cc(C)cc(C(=O)N(SN2CCN(Cc3ccc(Cl)nc3)/C2=N/[N+](=O)[O-])N(C(=O)c2cc(C)cc(C)c2)C(C)(C)C)c1 | 0% | 10% | 25% | 50% | Active | 89% | – | 70% | 100% | Active
COc1ccc(C(=O)NN(C(=O)c2ccc(OC)cc2)C(C)(C)C)cc1 | – | – | 0% | 10% | Active | 22% | – | 40% | 95% | –
O=[N+]([O-])/N=C1\NCCN1Cc1ccc(Cl)nc1 [IMIDACLOPRID] | 10% | 20% | 30% | 60% | – | 100% | – | 100% | – | Active
CC(C)(C)N(C(=O)c1ccc(Cl)cc1)N(SN1CCN(Cc2ccc(Cl)nc2)/C1=N/[N+](=O)[O-])C(=O)c1ccccc1 | – | 0% | 40% | 70% | Active | 87% | – | 80% | 100% | Active
COc1ccccc1C(=O)N(N(SN1CCN(Cc2ccc(Cl)nc2)/C1=N/[N+](=O)[O-])C(=O)c1ccccc1)C(C)(C)C | – | – | 0% | 20% | Active | 92% | – | 40% | 90% | Active
CC(C)(C)N(C(=O)c1ccccc1Cl)N(SN1CCN(Cc2ccc(Cl)nc2)/C1=N/[N+](=O)[O-])C(=O)c1ccccc1 | 0% | 10% | 30% | 50% | Active | 84% | – | 60% | 100% | Active
Cc1cc(C)cc(C(=O)N(N(SN2CCN(Cc3ccc(Cl)nc3)/C2=N/[N+](=O)[O-])C(=O)c2ccccc2)C(C)(C)C)c1 | – | 0% | 10% | 55% | Active | 80% | – | 85% | 95% | Active
COc1ccc(C(=O)N(NC(=O)c2ccccc2)C(C)(C)C)cc1 | – | – | – | – | Active | 0% | – | 0% | 60% | –
COc1ccccc1C(=O)N(SN1CCN(Cc2ccc(Cl)nc2)/C1=N/[N+](=O)[O-])N(C(=O)c1ccccc1OC)C(C)(C)C | – | 0% | 10% | 40% | Active | 91% | – | 70% | 80% | Active
CC(C)(C)N(NC(=O)c1ccccc1)C(=O)c1ccc(Cl)cc1 | 25% | 100% | 100% | – | Active | 26% | 0% | – | – | –
Cc1cc(C)cc(C(=O)NN(C(=O)c2cc(C)cc(C)c2)C(C)(C)C)c1 | 10% | 70% | 95% | – | Active | 10% | – | – | – | –
CCc1ccc(C(=O)N(SN2CCN(Cc3ccc(Cl)nc3)/C2=N/[N+](=O)[O-])N(C(=O)c2cc(C)cc(C)c2)C(C)(C)C)cc1 | 90% | 100% | 100% | – | Active | 53% | 70% | – | – | Active
COc1ccccc1C(=O)NN(C(=O)c1ccccc1OC)C(C)(C)C | – | – | – | – | Active | 0% | – | 70% | 10% | –
CC(C)(C)N(C(=O)c1cccc(Cl)c1)N(SN1CCN(Cc2ccc(Cl)nc2)/C1=N/[N+](=O)[O-])C(=O)c1ccccc1 | – | 0% | 25% | 70% | Active | 86% | – | 80% | 100% | Active
COc1ccc(C(=O)N(N(SN2CCN(Cc3ccc(Cl)nc3)/C2=N/[N+](=O)[O-])C(=O)c2ccccc2)C(C)(C)C)cc1 | – | – | 0% | 20% | Active | 95% | – | 70% | 80% | Active
CC(C)(C)N(NC(=O)c1ccccc1)C(=O)c1ccccc1Cl | 75% | 90% | 100% | – | Active | 18% | 0% | – | – | –
Cc1cc(C)cc(C(=O)N(NC(=O)c2ccccc2)C(C)(C)C)c1 | 10% | 60% | 100% | – | Active | 12% | – | – | – | –
COc1ccccc1C(=O)N(NC(=O)c1ccccc1)C(C)(C)C | 10% | 90% | 100% | – | Active | 32% | 0% | – | – | –
COc1ccc(C(=O)N(SN2CCN(Cc3ccc(Cl)nc3)/C2=N/[N+](=O)[O-])N(C(=O)c2ccc(OC)cc2)C(C)(C)C)cc1 | – | – | 0% | 40% | Active | 87% | – | 70% | 100% | Active
CC(C)(C)N(C(=O)c1ccccc1)N(SN1CCN(Cc2ccc(Cl)nc2)/C1=N/[N+](=O)[O-])C(=O)c1ccccc1 | – | – | – | 0% | Active | 100% | – | 80% | 100% | Active
